Measurements: PMC4015918, “Conjugation to a SMAC mimetic potentiates sigma-2 ligand induced tumor cell death in ovarian cancer” (Molecular Cancer, 2014)

How the values were obtained:
sigma-2 receptor = biological target: T1, sigma-2 receptor (Rattus norvegicus, UniProt Q5U3Y7); experiment: Sigma-2 receptor binding, [3H](+)-DTG displacement in rat liver membrane homogenates
T1 construct: guinea pig brain (sigma-1 assay) or rat liver (sigma-2 assay) membrane homogenates; from tissue; host or cells: rat liver membrane homogenate
T1 sequence (Q5U3Y7 1-176): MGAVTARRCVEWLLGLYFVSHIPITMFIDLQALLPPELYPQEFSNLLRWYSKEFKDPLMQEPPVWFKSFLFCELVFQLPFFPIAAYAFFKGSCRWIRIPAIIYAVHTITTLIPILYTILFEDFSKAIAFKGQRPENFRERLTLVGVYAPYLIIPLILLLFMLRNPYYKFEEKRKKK
Procedure: In order to verify its unaltered target recognition properties, the binding affinity of SW IV-134 to the sigma-2 receptor was determined using previously established methods employing rat liver membrane homogenates (see M&M and Ref [19] for details on receptor binding determinations). […] As another means to probe for the ability of SW IV-134 to bind to the sigma-2 receptor, we performed a competition assay using intact ovarian cancer cells and the fluorescently labeled SW43 homolog SW120 [21].
The sigma-1 and sigma-2 receptor binding affinities of SW IV-134 were determined as previously described. […] Each filter was washed three times with 200 μL of ice-cold wash buffer, and the bound radioactivity quantified using a Wallac 1450 MicroBeta liquid scintillation counter (Perkin Elmer, Boston, MA). Nonspecific binding was determined in the presence of 10 μM cold haloperidol. […]
Table S1. […] The sigma-1 and sigma-2 receptor binding affinities of S W I V-134 were determined as previously described (22). For details see also the Materials and Methods section. a Mean ± S .E .M .K i values were determined by at least three ex periments. b Ki for inhibiting the binding of [ 3H] […]

SKOV3-Luc xenografts = experiment: Intraperitoneal SKOV3-Luc xenograft model of ovarian cancer (bioluminescence imaging, survival); assay type: in vivo, SCID mice; details: for Tumor response by bioluminescence signal intensity during treatment: start 7 days after inoculation, first week onward; for Median survival: daily i.p. for 3 weeks, 10 mice per group followed, vehicle 74 days
Description: Figure 6 SW IV-134 is a potent single-agent cancer drug in a peritoneal mouse xenograft model of ovarian cancer. (A) Female SCID mice were inoculated intraperitoneally with 5 × 10^6 SKOV3-Luc cells. Treatment was initiated with intraperitoneal injections of SW43, SW IV-134, or vehicle control 7 days after tumor cell inoculation, and continued for a total of 3 weeks. Mice were imaged once a week during the treatment period. Change in bioluminescence photon flux during treatment in each experimental arm (n = 15) was evaluated. Bioluminescent signals at each time point were averaged per treatment group (mean ± SEM). Significant differences were noted between vehicle vs. SW IV-134 and SW43 vs. SW IV-134 (p < 0.0097, one-way ANOVA). (B) Bioluminescent images at the end of the treatment (day 21) of one representative mouse per treatment arm (n = 15). […] (C) Kaplan-Meier survival analysis. At the end of the 3 week treatment, 5 mice from each experimental group were subjected to necropsy. The remaining 10 mice from each treatment group were followed until death to examine overall survival (p < 0.0108, Log-rank test).
All studies were performed in accordance with an animal protocol approved by the Washington University Institutional Animal Care Facility. Female severe combined immunodeficient mice (SCID) were purchased from Taconic Farms (Hudson, NY) at age 6 weeks. SKOV3-Luc cells (5 × 10^6) were inoculated intraperitoneally and mice were randomized 7 days later into one of the three treatment groups according to their baseline luciferase activity employing bioluminescence imaging (BLI). For bioluminescence imaging, mice were injected intraperitoneally with 150 μg/g D-luciferin (Biosynth, Naperville, IL) in PBS, anesthetized with 2.5% isoflurane, and imaged with a charge-coupled device (CCD) camera-based bioluminescence imaging system (IVIS 100; Caliper, Hopkinton, MA; exposure time 300 seconds, binning 16, field of view 12, f/stop 1, open filter).
In vivo experiments were conducted with 15 mice per treatment group. Treatment involved daily intraperitoneal injections with 90 μL of SW43 (7.5 mM stock), SW IV-134 (7.5 mM stock), or vehicle-only (25% cremophor in H2O) for 3 weeks. Tumor burden was monitored by bioluminescence imaging once a week during the treatment period. At the end of the treatment, 5 mice were randomly removed per treatment group and submitted for necropsy to the Washington University Department of Comparative Medicine. Blood samples were collected by intracardiac withdrawal prior to necropsy for chemistry and hematology work-up. In addition, various key organs were harvested for gross and histopathological examination. The remaining 10 mice from each treatment group were followed over time to examine overall survival. For survival studies, actual death or poor physical condition/large tumor size meeting criteria for euthanasia, constituted a death event.

[1] = daily i.p. 90 μL of 7.5 mM stock

Row | Structure (SMILES) | Ki (sigma-2 receptor) | Tumor response by bioluminescence signal intensity during treatment (SKOV3-Luc xenografts; [1]) | Median survival (SKOV3-Luc xenografts) | Bioluminescence signal intensity at the end of the 3 week treatment (SKOV3-Luc xenografts; daily i.p. 90 μL of 7.5 mM stock, day 21) | Extension of median survival (SKOV3-Luc xenografts; intraperitoneal metastatic model)
1 | COc1ccc(C)cc1NC(=O)OC1CC2CCCC(C1)N2CCCCCCCCCCN (centres unmarked) [SW43, reference compound] | 7.1 ± 1.3 nM | signal intensity increased | 76.5 days | – | –
2 | COc1ccc(C)cc1NC(=O)OC1CC2CCCC(C1)N2CCCCCCCCCCN[C@@H](C)C(=O)N[C@H](C(=O)N1CCC[C@H]1C(=O)N[C@@H]1CCCc2ccccc21)C(C)(C)C (some centres unmarked) [SW IV-134] | 22.6 ± 1.8 nM | Tumor regression was evident by the end of the first week of treatment | 86.5 days | significantly lower than both the SW43 and the vehicle-only treatment groups | 10 days
